We go through 10 compounds from ChEMBL document CHEMBL5291721, “A preclinical secondary pharmacology resource illuminates target-adverse drug reaction associations of marketed drugs” (Nat Commun, 2023).

Where only a bound is given, the exact number is not on record here.

The target of experiment [1] is T1, Muscarinic acetylcholine receptor M1 (Homo sapiens, UniProt P11229).
T1 sequence (P11229 whole entry): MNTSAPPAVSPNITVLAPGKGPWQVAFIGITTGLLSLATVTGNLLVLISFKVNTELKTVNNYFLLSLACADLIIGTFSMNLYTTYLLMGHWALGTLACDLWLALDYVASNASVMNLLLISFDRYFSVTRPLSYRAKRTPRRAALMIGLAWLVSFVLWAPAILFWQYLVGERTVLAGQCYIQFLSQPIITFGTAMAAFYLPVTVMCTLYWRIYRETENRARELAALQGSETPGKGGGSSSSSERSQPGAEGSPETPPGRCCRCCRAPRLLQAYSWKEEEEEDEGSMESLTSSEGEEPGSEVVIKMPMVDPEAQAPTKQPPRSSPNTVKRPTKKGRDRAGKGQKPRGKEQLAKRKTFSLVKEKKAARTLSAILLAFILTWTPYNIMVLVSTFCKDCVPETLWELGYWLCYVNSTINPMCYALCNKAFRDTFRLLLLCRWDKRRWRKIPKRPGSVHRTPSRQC
The class given is functional, cell-based.

The target of experiment [2] is Prothrombin (Homo sapiens, UniProt P00734). The class given is functional.
The target of experiment [3] is T2, 5-hydroxytryptamine receptor 1A (Homo sapiens, UniProt P08908).
T2 sequence (P08908 whole entry): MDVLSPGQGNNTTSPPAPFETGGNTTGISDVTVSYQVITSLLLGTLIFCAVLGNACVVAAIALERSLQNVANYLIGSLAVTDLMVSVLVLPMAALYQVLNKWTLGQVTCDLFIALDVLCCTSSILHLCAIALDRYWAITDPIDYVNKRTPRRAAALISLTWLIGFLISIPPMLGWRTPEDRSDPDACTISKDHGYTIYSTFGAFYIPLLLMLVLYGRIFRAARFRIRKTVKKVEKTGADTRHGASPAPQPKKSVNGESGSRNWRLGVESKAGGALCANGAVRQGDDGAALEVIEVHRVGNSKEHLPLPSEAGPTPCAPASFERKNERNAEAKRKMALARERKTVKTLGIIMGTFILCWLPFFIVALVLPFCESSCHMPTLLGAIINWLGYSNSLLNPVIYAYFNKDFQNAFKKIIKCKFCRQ

Experiment [4] deals with 5-hydroxytryptamine receptor 2B (Homo sapiens, UniProt P41595). The class given is functional, cell-based.
Sequence of 5-hydroxytryptamine receptor 2B (P41595 whole entry): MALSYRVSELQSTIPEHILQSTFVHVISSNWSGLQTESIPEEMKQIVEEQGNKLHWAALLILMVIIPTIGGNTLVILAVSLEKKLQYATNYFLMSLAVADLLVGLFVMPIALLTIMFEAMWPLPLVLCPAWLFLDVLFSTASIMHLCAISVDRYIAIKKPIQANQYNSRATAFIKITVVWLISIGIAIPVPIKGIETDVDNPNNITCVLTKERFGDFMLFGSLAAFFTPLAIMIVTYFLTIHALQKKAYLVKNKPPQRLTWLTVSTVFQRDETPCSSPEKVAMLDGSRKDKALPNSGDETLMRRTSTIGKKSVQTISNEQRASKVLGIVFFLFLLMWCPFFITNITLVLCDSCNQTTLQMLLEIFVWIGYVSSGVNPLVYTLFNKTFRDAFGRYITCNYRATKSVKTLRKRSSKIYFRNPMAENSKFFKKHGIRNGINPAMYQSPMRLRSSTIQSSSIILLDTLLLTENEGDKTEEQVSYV
Experiment [5] deals with T3, Progesterone receptor (Homo sapiens, UniProt P06401).
T3 sequence (P06401 whole entry): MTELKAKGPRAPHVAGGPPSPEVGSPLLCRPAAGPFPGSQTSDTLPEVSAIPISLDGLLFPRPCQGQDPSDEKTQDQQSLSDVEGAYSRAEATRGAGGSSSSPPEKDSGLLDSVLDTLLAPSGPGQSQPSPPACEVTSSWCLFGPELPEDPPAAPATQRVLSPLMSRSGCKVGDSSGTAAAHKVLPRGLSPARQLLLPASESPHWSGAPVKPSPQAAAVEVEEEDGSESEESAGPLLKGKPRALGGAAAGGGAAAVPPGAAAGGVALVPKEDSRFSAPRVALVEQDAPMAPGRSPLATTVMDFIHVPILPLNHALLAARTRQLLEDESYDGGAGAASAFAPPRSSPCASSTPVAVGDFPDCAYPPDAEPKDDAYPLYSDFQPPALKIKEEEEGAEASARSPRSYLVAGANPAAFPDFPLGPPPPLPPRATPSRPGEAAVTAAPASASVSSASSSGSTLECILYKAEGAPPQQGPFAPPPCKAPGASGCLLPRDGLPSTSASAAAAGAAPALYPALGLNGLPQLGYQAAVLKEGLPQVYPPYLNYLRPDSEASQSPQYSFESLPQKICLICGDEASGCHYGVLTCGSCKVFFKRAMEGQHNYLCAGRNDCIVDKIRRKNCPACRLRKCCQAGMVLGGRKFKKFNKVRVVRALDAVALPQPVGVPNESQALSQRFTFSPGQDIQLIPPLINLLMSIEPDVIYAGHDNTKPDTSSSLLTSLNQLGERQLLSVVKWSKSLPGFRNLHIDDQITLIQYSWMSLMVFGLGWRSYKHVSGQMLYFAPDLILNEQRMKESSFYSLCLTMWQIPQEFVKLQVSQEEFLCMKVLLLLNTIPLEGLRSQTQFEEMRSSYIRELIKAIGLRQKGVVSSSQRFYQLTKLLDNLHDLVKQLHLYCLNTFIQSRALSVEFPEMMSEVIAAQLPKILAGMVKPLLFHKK

Experiment [6] deals with T4, Thromboxane A2 receptor (Homo sapiens, UniProt P21731).
T4 sequence (P21731 whole entry): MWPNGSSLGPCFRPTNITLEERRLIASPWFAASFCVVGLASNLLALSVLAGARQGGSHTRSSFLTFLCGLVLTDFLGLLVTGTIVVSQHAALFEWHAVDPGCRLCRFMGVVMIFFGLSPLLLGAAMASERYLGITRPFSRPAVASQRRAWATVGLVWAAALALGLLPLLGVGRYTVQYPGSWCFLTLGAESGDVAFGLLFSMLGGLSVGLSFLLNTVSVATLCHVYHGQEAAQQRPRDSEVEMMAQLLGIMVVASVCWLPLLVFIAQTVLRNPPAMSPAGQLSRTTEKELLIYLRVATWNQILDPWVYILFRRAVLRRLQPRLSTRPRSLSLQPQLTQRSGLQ
The class given is functional, cell-based.

The target in experiment [7] is T4, Thromboxane A2 receptor. The class given is functional, cell-based. This is another data set of the same source.
Experiment [8] addresses T5, Adenosine receptor A3 (Homo sapiens, UniProt P0DMS8).
T5 sequence (P0DMS8 whole entry): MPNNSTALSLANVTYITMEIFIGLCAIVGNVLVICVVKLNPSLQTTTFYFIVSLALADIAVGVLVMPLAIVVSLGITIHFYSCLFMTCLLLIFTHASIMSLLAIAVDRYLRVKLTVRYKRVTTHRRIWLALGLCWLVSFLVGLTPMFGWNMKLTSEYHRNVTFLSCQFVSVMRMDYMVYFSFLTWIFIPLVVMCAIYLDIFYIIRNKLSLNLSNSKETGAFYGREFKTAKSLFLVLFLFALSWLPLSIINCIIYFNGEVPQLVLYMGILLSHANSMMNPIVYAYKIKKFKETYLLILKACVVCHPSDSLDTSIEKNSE

The target in experiment [9] is Vascular endothelial growth factor receptor 2 (Homo sapiens, UniProt P35968). The class given is functional.
Sequence of Vascular endothelial growth factor receptor 2 (P35968 whole entry): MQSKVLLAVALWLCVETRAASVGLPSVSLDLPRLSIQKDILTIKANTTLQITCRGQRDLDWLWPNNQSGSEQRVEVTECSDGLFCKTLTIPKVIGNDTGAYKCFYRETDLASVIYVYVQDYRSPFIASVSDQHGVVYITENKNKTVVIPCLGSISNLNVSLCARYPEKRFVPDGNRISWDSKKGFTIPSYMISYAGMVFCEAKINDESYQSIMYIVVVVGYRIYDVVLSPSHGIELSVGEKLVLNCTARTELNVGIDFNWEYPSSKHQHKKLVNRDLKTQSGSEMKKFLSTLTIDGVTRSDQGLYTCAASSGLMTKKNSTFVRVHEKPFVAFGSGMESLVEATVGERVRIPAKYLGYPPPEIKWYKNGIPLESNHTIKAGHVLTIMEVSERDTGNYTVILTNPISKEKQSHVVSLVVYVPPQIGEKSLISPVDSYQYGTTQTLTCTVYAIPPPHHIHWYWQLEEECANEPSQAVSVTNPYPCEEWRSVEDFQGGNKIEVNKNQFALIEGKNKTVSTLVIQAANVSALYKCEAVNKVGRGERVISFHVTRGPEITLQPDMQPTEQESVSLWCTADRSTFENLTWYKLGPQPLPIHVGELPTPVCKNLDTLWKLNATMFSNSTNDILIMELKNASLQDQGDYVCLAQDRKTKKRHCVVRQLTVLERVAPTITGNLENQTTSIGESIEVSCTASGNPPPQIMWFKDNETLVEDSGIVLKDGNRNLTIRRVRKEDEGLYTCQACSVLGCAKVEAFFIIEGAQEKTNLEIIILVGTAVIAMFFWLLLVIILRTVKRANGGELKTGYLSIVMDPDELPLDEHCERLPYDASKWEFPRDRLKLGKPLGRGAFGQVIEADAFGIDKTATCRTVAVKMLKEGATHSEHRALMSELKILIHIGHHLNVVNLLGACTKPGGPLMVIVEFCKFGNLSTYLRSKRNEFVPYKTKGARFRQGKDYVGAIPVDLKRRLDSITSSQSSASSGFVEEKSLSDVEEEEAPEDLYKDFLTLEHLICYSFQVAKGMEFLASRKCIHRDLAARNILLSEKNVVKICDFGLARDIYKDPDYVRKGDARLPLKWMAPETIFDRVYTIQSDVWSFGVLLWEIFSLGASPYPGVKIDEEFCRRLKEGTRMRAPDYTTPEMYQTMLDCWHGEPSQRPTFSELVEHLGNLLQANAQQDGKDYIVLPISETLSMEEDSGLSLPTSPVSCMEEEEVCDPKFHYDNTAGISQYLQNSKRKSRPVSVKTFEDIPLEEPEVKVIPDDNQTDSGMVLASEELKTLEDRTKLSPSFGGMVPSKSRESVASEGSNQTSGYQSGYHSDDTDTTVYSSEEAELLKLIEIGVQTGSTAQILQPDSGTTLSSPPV
Further: assay procedure not described here.

Usually AC50 stands for the midpoint of the concentration-response curve, whichever way the signal moves. High values mean weaker potency, low ones greater potency. With `CCC(CC)(CC(=O)Nc1cccc(/C=C/c2nc(C3CCC3)cs2)c1)C(=O)O`, the AC50 in [1] is more than 10 µM; in experiment [2], more than 30 µM; in [3] it was more than 30 µM; in experiment [4] it was more than 30 µM; in experiment [5], more than 30 µM; in [6], more than 10 µM. This compound also came in with an AC50 in experiment [7] of more than 3 µM.

For `CCCNC(C)C(=O)Nc1c(C)csc1C(=O)OC` (centres undefined) [ARTICAINE], the AC50 in experiment [8], in [1], in experiment [2], in experiment [4], in experiment [9] and in [5] was more than 30 µM each time. Also, the AC50 in [6] and in [7] was more than 30 µM throughout.

For `CCCCCNC(=N)N/N=C/c1c[nH]c2ccc(OC)cc12` [TEGASEROD], the AC50 in experiment [1] is more than 3 µM; in experiment [2], more than 30 µM; in [3], 0.04 µM; in experiment [4] it was more than 30 µM; in experiment [5], more than 30 µM; in [6] it was more than 3 µM. Besides, in [7], the AC50 is more than 3 µM.

For `O=C(Oc1ccc2c(c1)CCCN2C(=O)C(Cl)Cl)c1ccco1` [QUINFAMIDE], the concentration at half-maximal activity (AC50) in [8] is 25.6 µM; in experiment [1] it was more than 30 µM; in experiment [2], more than 30 µM; in experiment [3] it was more than 30 µM; in experiment [4] it was more than 30 µM; in experiment [5], more than 30 µM. For the same compound, the concentration at half-maximal activity (AC50) in experiment [6] and in [7] was more than 30 µM throughout.

Turning to `O=[N+]([O-])O[C@@H]1CO[C@H]2[C@@H]1OC[C@@H]2O` [ISOSORBIDE MONONITRATE], the AC50 in experiment [1], in experiment [2], in experiment [3], in [4], in experiment [5] and in experiment [6] was more than 30 µM in each case. The compound also registered an AC50 in experiment [7] of more than 30 µM.

For the compound `CN1CCN(C2=Nc3ccccc3Sc3ccc(Cl)cc32)CC1` [CLOTHIAPINE], the AC50 in experiment [1] was more than 10 µM; in [2], more than 30 µM; in experiment [3], 12.1 µM; in [4], more than 30 µM; in experiment [5], more than 30 µM; in [6], more than 10 µM. In experiment [7], the AC50 is more than 10 µM.

In the case of `O=[N+]([O-])c1cn2c(n1)OC[C@@H](OCc1ccc(OC(F)(F)F)cc1)C2` [PRETOMANID], the AC50 in [8], in experiment [1], in [2], in [3], in experiment [4] and in experiment [5] was more than 30 µM in each case. The AC50 in experiment [6] and in experiment [7] was more than 30 µM in each case.

On to `OC(c1ccccc1)(c1ccccc1)C12CC[N+](CCOCc3ccccc3)(CC1)CC2`, for which the AC50 in experiment [8], in [1], in [2], in experiment [3], in experiment [4] and in experiment [5] was more than 30 µM each time. In addition, the AC50 in experiment [6] and in [7] was more than 30 µM each time.

Turning to `COC1=C(OC)C(=O)C(C/C=C(\C)CC/C=C(\C)CC/C=C(\C)CC/C=C(\C)CC/C=C(\C)CC/C=C(\C)CC/C=C(\C)CC/C=C(\C)CC/C=C(\C)CCC=C(C)C)=C(C)C1=O` [UBIDECARENONE], the AC50 in experiment [1], in [2], in [3], in experiment [4], in experiment [5] and in experiment [6] was more than 30 µM throughout. The AC50 in experiment [7] is more than 30 µM.

Regarding `CCCCS(=O)(=O)N[C@@H](Cc1ccc(OCCCCC2CCNCC2)cc1)C(=O)O` [TIROFIBAN], the AC50 in experiment [1], in experiment [2], in [3], in experiment [4], in experiment [5] and in [6] was more than 30 µM each time. Also, the concentration at half-maximal activity (AC50) in experiment [7] is more than 10 µM.
